Consider 8 molecules from article PMC8578332 (Scientific Reports, 2021).

Where a SMILES comes first, the peptide text is derived from it. Bridges are numbered along the chain shown (N, C = ends).

This experiment addresses human α7-containing nAChRs (Homo sapiens, UniProt P36544). Nature of the experiment: cell-based. It is filed as cell-based. The settings on record: SEM.

Sequence of human α7-containing nAChRs (P36544 23-502 limits assumed): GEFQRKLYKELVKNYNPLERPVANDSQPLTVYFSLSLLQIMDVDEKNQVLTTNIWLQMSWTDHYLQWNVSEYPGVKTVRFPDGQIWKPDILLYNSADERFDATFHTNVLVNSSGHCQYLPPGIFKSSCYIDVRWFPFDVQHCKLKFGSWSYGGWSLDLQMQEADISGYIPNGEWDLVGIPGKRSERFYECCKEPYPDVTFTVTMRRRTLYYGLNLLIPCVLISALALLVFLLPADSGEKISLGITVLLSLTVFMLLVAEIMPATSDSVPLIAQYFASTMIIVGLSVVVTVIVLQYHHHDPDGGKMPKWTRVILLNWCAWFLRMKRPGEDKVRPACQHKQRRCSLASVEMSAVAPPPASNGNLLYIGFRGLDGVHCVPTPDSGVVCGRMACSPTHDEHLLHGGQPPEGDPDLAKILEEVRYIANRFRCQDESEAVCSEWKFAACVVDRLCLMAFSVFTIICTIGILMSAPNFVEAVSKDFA

Molecule `CC[C@H](C)[C@@H]1NC(=O)[C@H](CC(N)=O)NC(=O)[C@@H]2CCCN2C(=O)[C@H](CC(N)=O)NC(=O)[C@H](CC(N)=O)NC(=O)[C@H](C(C)C)NC(=O)[C@H](CCCNC(=N)N)NC(=O)[C@@H]2CSSC[C@H](NC(=O)CNC(=O)[C@@H](N)CO)C(=O)N[C@@H](CSSC[C@@H](C(N)=O)NC1=O)C(=O)N[C@@H](CO)C(=O)N[C@@H](CC(N)=O)C(=O)N1CCC[C@H]1C(=O)N[C@@H](C)C(=O)N2` [gLsIA, reference compound] (H-SGCCSNPACRVNNPNIC-NH2; disulfide 3-9, 4-17) returned an IC50 of 0.3 ± 0.063 µM. On to `CC(C)[C@H](NC(=O)[C@@H]1CSSC[C@@H]2NC(=O)[C@@H](NC(=O)[C@@H](N)CO)CSSC[C@H](NC(=O)[C@H](C)NC(=O)[C@@H]3CCCN3C(=O)[C@H](CC(N)=O)NC(=O)[C@H](CCCNC(=N)N)NC(=O)[C@H](C)NC2=O)C(=O)N[C@@H](CCCNC(=N)N)C(=O)N[C@@H](Cc2c[nH]cn2)C(=O)N[C@@H](CC(N)=O)C(=O)N[C@@H](Cc2c[nH]cn2)C(=O)N2CCC[C@H]2C(=O)N1)C(N)=O` [gAusIA] (H-SCCARNPACRHNHPCV-NH2; disulfide 2-9, 3-15), for which inhibition was half-maximal at 47 ± 6.7 µM (IC50). Regarding `CC[C@H](C)[C@@H]1NC(=O)[C@@H]2CSSC[C@H](NC(=O)CN)C(=O)N[C@@H](CSSC[C@@H](C(N)=O)NC(=O)[C@H](CC(C)C)NC(=O)[C@H](CC(=O)O)NC(=O)[C@@H]3CCCN3C(=O)[C@H](CC(N)=O)NC(=O)[C@H](CC(N)=O)NC(=O)[C@H](CC(C)C)NC1=O)C(=O)N[C@@H](CO)C(=O)N[C@@H](C)C(=O)N[C@@H](CCCNC(=N)N)C(=O)N1CCC[C@H]1C(=O)N1CCC[C@H]1C(=O)N2` [gTxIA[∇A5 A10L]] (H-GCCSARPPCILNNPDLC-NH2; disulfide 2-9, 3-17), half-maximal inhibition (IC50) required 18 ± 4 µM. `CC[C@H](C)[C@@H]1NC(=O)[C@@H]2CSSC[C@H](NC(=O)[C@@H](NC(=O)CN)CSSC[C@@H](C(N)=O)NC(=O)[C@H](CC(C)C)NC(=O)[C@H](CC(=O)O)NC(=O)[C@@H]3CCCN3C(=O)[C@H](CC(N)=O)NC(=O)[C@H](CC(N)=O)NC(=O)[C@H](CC(C)C)NC1=O)C(=O)N[C@@H](CO)C(=O)N[C@@H](C)C(=O)N[C@@H](CCCNC(=N)N)C(=O)N1CCC[C@H]1C(=O)N1CCC[C@H]1C(=O)N2` [rTxIA[∇A5 A10L]] (H-GCCSARPPCILNNPDLC-NH2; disulfide 2-17, 3-9) returned an IC50 of 39 ± 10.3 µM. Molecule `CC[C@H](C)[C@@H]1NC(=O)[C@@H]2CSSC[C@H](NC(=O)[C@@H](NC(=O)CN)CSSC[C@@H](C(N)=O)NC(=O)[C@H](CC(C)C)NC(=O)[C@H](CC(=O)O)NC(=O)[C@@H]3CCCN3C(=O)[C@H](CC(N)=O)NC(=O)[C@H](CC(N)=O)NC(=O)[C@H](CC(C)C)NC1=O)C(=O)N[C@@H](CO)C(=O)N[C@@H](CCCNC(=N)N)C(=O)N1CCC[C@H]1C(=O)N1CCC[C@H]1C(=O)N2` [rTxIA [A10L], reference compound] (H-GCCSRPPCILNNPDLC-NH2; disulfide 2-16, 3-8) returned an IC50 of 6 ± 0.123 µM. As for `CC(C)[C@H](NC(=O)[C@@H]1CSSC[C@H](NC(=O)[C@@H](N)CO)C(=O)N[C@H]2CSSC[C@H](NC(=O)[C@H](C)NC(=O)[C@@H]3CCCN3C(=O)[C@H](CC(N)=O)NC(=O)[C@H](CCCNC(=N)N)NC(=O)[C@H](C)NC2=O)C(=O)N[C@@H](CCCNC(=N)N)C(=O)N[C@@H](Cc2c[nH]cn2)C(=O)N[C@@H](CC(N)=O)C(=O)N[C@@H](Cc2c[nH]cn2)C(=O)N2CCC[C@H]2C(=O)N1)C(N)=O` [rAusIA] (H-SCCARNPACRHNHPCV-NH2; disulfide 2-15, 3-9), the figure is 26 ± 5 µM. Consider `CC[C@H](C)[C@@H]1NC(=O)[C@H](CC(N)=O)NC(=O)[C@@H]2CCCN2C(=O)[C@H](CC(N)=O)NC(=O)[C@H](CC(N)=O)NC(=O)[C@H](C(C)C)NC(=O)[C@H](CCCNC(=N)N)NC(=O)[C@@H]2CSSC[C@H](NC(=O)[C@@H](NC(=O)CNC(=O)[C@@H](N)CO)CSSC[C@@H](C(N)=O)NC1=O)C(=O)N[C@@H](CO)C(=O)N[C@@H](CC(N)=O)C(=O)N1CCC[C@H]1C(=O)N[C@@H](C)C(=O)N2` [rLsIA, reference compound] (H-SGCCSNPACRVNNPNIC-NH2; disulfide 3-17, 4-9), for which the IC50 turned out to be 41 ± 3.4 µM. Under `CC[C@H](C)[C@@H]1NC(=O)[C@@H]2CSSC[C@H](NC(=O)CN)C(=O)N[C@@H](CSSC[C@@H](C(N)=O)NC(=O)[C@H](CC(C)C)NC(=O)[C@H](CC(=O)O)NC(=O)[C@@H]3CCCN3C(=O)[C@H](CC(N)=O)NC(=O)[C@H](CC(N)=O)NC(=O)[C@H](CC(C)C)NC1=O)C(=O)N[C@@H](CO)C(=O)N[C@@H](CCCNC(=N)N)C(=O)N1CCC[C@H]1C(=O)N1CCC[C@H]1C(=O)N2` [gTxIA [A10L], reference compound] (H-GCCSRPPCILNNPDLC-NH2; disulfide 2-8, 3-16) stands 0.5 ± 0.036 µM.

The term IC50 denotes the concentration that inhibits the measured activity by half. Read a low IC50 as greater potency.
